Experimental findings from US11576900B2, “Compositions and methods of reducing serum cholesterol and PCSK9” (CASE WESTERN RESERVE UNIVERSITY, priority 2017, dated 2023) are described below.

The nature of assay [1]: Total serum cholesterol in ApoE deficient mice on in-diet imirestat. The assay is classed as in vivo. As to conditions: ApoE deficient 24 week old male mice, 4 weeks in-diet Imirestat; FIG. 10. On the procedure:
(§1) AKR1A1^−/− mice were generated by Deltagen, Inc. C57BL6/J and ApoE^−/− mice were purchased from The Jackson Laboratory. CETP-ApoB100 transgenic mice were purchased from Taconic Biosciences. All mice were maintained under a 12-hour light/dark cycle. For imirestat treatment studies, mice were provided control chow or chow containing 0.0125% w/w imirestat (125 mg imirestat/1 kg chow) ad libitum. C57BL6/J and ApoE^−/− mice were provided control chow or imirestat chow for 4 weeks starting at age 20 weeks; CETP-ApoB100 transgenic mice were provided control chow or imirestat chow for 8 weeks starting at age 10 weeks.
(§2) Prior to euthanasia, mice were fasted for the indicated length of time. […] Collected blood was allowed to coagulate for 20 minutes at room temperature in a pediatric serum separator tube. Serum was separated by centrifugation at 2000 g for 20 minutes at 4° C. […]
(§3) Total serum cholesterol was determined by standard enzymatic assays. For lipoprotein cholesterol quantification, lipoprotein fractions were separated by gel filtration column chromatography. Approximately 70 fractions were collected and cholesterol in each fraction was quantified by standard enzymatic assays. Calibration of the column with purified lipoprotein fractions permitted quantification of cholesterol in various lipoprotein classes. Serum PCSK9 was quantified by solid phase sandwich ELISA.

The nature of assay [2]: Cholesterol fractionation in ApoE deficient mice on in-diet imirestat. The assay is classed as in vivo. The following applies: ApoE deficient 24 week old male mice, 4 weeks in-diet Imirestat; FIG. 11. Here is the method:
as §1, §2, §3

In assay [3] the test system is PCSK9. Description: Serum PCSK9 levels in C57BL6J mice on in-diet imirestat (ELISA). The assay is classed as in vivo. The following applies: C57BL6J 24 week old male mice, 4 weeks in-diet Imirestat; FIG. 8. On the procedure: as §1, §2, §3
Background: An ELISA detects its analyte on a solid surface through an enzyme-linked reagent.

Assay [4] is described as follows: Total serum cholesterol in C57BL6J mice on in-diet imirestat. As to conditions: C57BL6J 24 week old male mice, 4 weeks in-diet Imirestat (0.0125% w/w chow); FIG. 6. The assay is classed as in vivo. On the procedure: as §1, §2, §3
Assay [5] addresses T1, human AKR1A1 (Homo sapiens, UniProt P14550).
T1 construct: His; made in house; host or cells: Rosetta2(DE3)pLysS E. coli
T1 sequence (P14550 1-325): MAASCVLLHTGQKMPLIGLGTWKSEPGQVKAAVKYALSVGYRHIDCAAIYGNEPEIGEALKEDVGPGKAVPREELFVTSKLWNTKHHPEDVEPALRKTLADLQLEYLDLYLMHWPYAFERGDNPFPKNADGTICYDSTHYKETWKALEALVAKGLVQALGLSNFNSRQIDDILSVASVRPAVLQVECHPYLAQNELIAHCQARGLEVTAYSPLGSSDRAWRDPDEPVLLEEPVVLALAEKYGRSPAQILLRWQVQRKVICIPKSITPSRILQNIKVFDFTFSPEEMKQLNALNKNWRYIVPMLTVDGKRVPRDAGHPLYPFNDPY
Briefly: AKR1A1 SNO-CoA reductase activity assay (recombinant enzyme). As to conditions: 200 nM recombinant AKR1A1, 100 μM NADPH, 100 μM SNO-CoA; FIG. 5; read-out: IC50 for inhibition of AKR1A1 SNO-CoA Reductase Activity. The assay is classed as biochemical. Here is the method: The human AKR1A1 coding sequence was cloned into a pET21b bacterial expression vector. pET21b-AKR1A1 was transformed into Rosetta2(DE3)pLysS E. coli and expression was induced by the addition of 100 μM isopropyl-β-D-1-thiogalactopyranoside at A600nm=0.4. Bacteria were grown for 4 hours at 25° C. and recombinant His-tagged SCoR was purified via Ni-affinity purification. Triplicate reactions were performed with 200 nM recombinant AKR1A1, 100 μM NADPH, 100 μM SNO-CoA, and increasing concentrations of imirestat dissolved in dimethyl sulfoxide (DMSO). SNO-CoA was prepared by reacting equal volumes of 0.1M CoA in 1M HCl and 0.1M NaNO2 water containing 100 μM EDTA and 100 μM DTPA. Initial rates were calculated using absorbance decrease at 340 nm. IC50 was calculated in GraphPad Prism 7 using non-linear regression analysis. For AKR1A1 liver activity following in-diet imirestat treatment, frozen liver tissue was dounce homogenized (30 dounces) in 50 mM phosphate buffer, pH 7.0 supplemented with 100 μM ethylenediaminetetraacetic acid (EDTA) and diethylenetriamine pentaacetate (DTPA) and 150 mM sodium chloride. […] Reactions were initiated by the addition of liver lysate and specific activity was calculated from the change in absorbance at 340 nm, protein concentration, and an extinction coefficient of 7.06 mM^−1·cm^−1 (combined for SNO-CoA and NADPH).

The subject of assay [6] is PCSK9. Briefly: Serum PCSK9 levels in ApoE deficient mice on in-diet imirestat (ELISA). The assay is classed as in vivo. The following applies: ApoE deficient 24 week old male mice, 4 weeks in-diet Imirestat; FIG. 12. On the procedure:
as §1, §2, §3

The target of assay [7] is T2, AKR1A1 (Mus musculus, UniProt Q9JII6).
T2 construct: For AKR1A1 liver activity following in-diet imirestat treatment, frozen liver tissue was dounce homogenized; from tissue; host or cells: liver of C57BL6/J mice (clarified lysate)
T2 sequence (Q9JII6 1-325): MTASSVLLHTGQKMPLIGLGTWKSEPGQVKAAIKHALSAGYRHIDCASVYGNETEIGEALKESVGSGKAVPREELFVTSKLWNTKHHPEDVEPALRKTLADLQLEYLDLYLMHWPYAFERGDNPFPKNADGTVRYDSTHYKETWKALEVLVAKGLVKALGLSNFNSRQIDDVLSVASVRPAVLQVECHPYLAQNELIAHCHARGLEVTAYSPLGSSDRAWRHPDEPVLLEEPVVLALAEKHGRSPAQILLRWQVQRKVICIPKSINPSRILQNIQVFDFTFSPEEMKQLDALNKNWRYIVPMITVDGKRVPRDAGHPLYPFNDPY
Description: SNO-CoA reductase activity in liver lysate of C57BL6J mice after in-diet imirestat. The assay is classed as in vivo. As to conditions: C57BL6J 24 week old male mice, 4 weeks in-diet Imirestat; FIG. 9. On the procedure:
as §1
Prior to euthanasia, mice were fasted for the indicated length of time. […]
The human AKR1A1 coding sequence was cloned into a pET21b bacterial expression vector. pET21b-AKR1A1 was transformed into Rosetta2(DE3)pLysS E. coli and expression was induced by the addition of 100 μM isopropyl-β-D-1-thiogalactopyranoside at A600nm=0.4. […] Initial rates were calculated using absorbance decrease at 340 nm. IC50 was calculated in GraphPad Prism 7 using non-linear regression analysis. […] Reactions were initiated by the addition of liver lysate and specific activity was calculated from the change in absorbance at 340 nm, protein concentration, and an extinction coefficient of 7.06 mM^−1·cm^−1 (combined for SNO-CoA and NADPH).

Assay [8] is described as follows: Cholesterol fractionation in C57BL6J mice on in-diet imirestat. The following applies: C57BL6J 24 week old male mice, 4 weeks in-diet Imirestat; FIG. 7. The assay is classed as in vivo. Here is the method: as §1, §2, §3
A short description of assay [9]: Total serum cholesterol in CETP/ApoB100 transgenic mice on in-diet imirestat. The assay is classed as in vivo. The following applies: CETP/ApoB100 transgenic male mice, FIG. 13. On the procedure:
AKR1A1^−/− mice were generated by Deltagen, Inc. C57BL6/J and ApoE^−/− mice were purchased from The Jackson Laboratory. CETP-ApoB100 transgenic mice were purchased from Taconic Biosciences. All mice were maintained under a 12-hour light/dark cycle. For imirestat treatment studies, mice were provided control chow or chow containing 0.0125% w/w imirestat (125 mg imirestat/1 kg chow) ad libitum. […]
Prior to euthanasia, mice were fasted for the indicated length of time. […] Collected blood was allowed to coagulate for 20 minutes at room temperature in a pediatric serum separator tube. Serum was separated by centrifugation at 2000 g for 20 minutes at 4° C. Serum was stored at −80° C. until analysis. For overnight fasted 12-week-old AKR1A1^−/− mice (FIG. 5), whole blood was provided to University Hospitals' Clinical Laboratory (Cleveland, Ohio) for cholesterol analysis. […]
as §3

The IC50 is the concentration needed to halve the response being measured.

For `O=C1NC(=O)C2(N1)c1cc(F)ccc1-c1ccc(F)cc12` [Imirestat, 2,7-Difluoro-2′H,5′H-spiro[fluorene-9,4′-imidazolidine]-2′,5′-dione], the “total serum cholesterol vs control” value in assay [1], in assay [4] and in [9] was “lower total serum cholesterol” in each case. Further, the “cholesterol fractionation vs control” value in assay [2] and in [8] was “reduced total serum cholesterol” each time. In addition, the “serum PCSK9 levels vs control” value in assay [3] and in assay [6] was “lower total serum PCSK9 levels” in each case. Moreover, the IC50 in [5] was ~120 nM. Further, the “SNO-CoA Reductase activity in liver (AKR1A1 liver activity) vs control” value in [7] was “lower AKR1A1 liver activity”.
